# Test results from US20240043434A1, “COCRYSTALS OF UPADACITINIB” (AbbVie Inc., priority 2021, published 2024).
# Where two headings read alike, the source gives them in different places.
# Assays:
# [1] = Storage stability determination of upadacitinib cocrystals (open dish, 40° C./75% RH); type: physicochemical; parameters: reference not given here; settings: chemical purity after storage in open dish at 40° C./75% RH up to one month
# Method: A storage stability study was performed to determine the short term stability for each of the five upadacitinib cocrystals disclosed herein. Samples of each upadacitinib cocrystal were stored in an open dish at 40° C./75% relative humidity (RH) for up to one month.
# [2] = Aqueous solubility determination of upadacitinib cocrystals; type: physicochemical; settings: aqueous solubility in water at 37° C., equilibrated by end-over-end tumbling for up to 24 hours
# Method: A solubility study was performed to determine the aqueous solubility for five of the upadacitinib cocrystals disclosed herein. Sufficiently sized samples of the solid cocrystals were added to individual vials along with a measured volume of water. The water-cocrystal mixtures were equilibrated at 37° C. by end-over-end tumbling for up to 24 hours. The amount of dissolved solid was determined for each sample.
Purity [1] [%],Solubility [2] [mg/mL],"Solubility ([2]; thermodynamic from solid, read-out: Solubility) [mg/mL]",Structure (SMILES)
103.9,11.3 ± 0.2,,"CC[C@@H]1CN(C(=O)NCC(F)(F)F)C[C@@H]1c1cnc2cnc3[nH]ccc3n12.O=C(O)c1ccc(O)c(O)c1 [3,4-dihydroxybenzoic acid cocrystal]"
102.7,4.29 ± 0.05,,CC[C@@H]1CN(C(=O)NCC(F)(F)F)C[C@@H]1c1cnc2cnc3[nH]ccc3n12.O=C(O)c1ccc(O)cc1 [4-hydroxybenzoic acid cocrystal]
100.2,,0.37 ± 0.004,"CC[C@@H]1CN(C(=O)NCC(F)(F)F)C[C@@H]1c1cnc2cnc3[nH]ccc3n12 [Upadacitinib Form I, (3S,4R)-3-ethyl-4-(3H-imidazo[1,2-a]pyrrolo[2,3-e]pyrazin-8-yl)-N-(2,2,2-trifluoroethyl)pyrrolidine-1-carboxamide, reference compound]"

# Continued, molecule first:
Structure (SMILES),Purity [1] [%],Solubility [2] [mg/mL],"Solubility ([2]; thermodynamic from solid, read-out: Solubility) [mg/mL]"
CC[C@@H]1CN(C(=O)NCC(F)(F)F)C[C@@H]1c1cnc2cnc3[nH]ccc3n12.O=C(O)c1ccc(O)c([N+](=O)[O-])c1 [4-hydroxy-3-nitrobenzoic acid cocrystal],99.9,1.47 ± 0.01,
CCC1CN(C(=O)NCC(F)(F)F)CC1c1cnc2cnc3[nH]ccc3n12.O=C(O)c1cc(O)c(O)c(O)c1 (stereo not drawn) [gallic acid cocrystal],103.8,5.13 ± 0.05,
CC(=O)Nc1ccc(C(=O)O)cc1.CC[C@@H]1CN(C(=O)NCC(F)(F)F)C[C@@H]1c1cnc2cnc3[nH]ccc3n12 [4-acetamidobenzoic acid cocrystal],100.0,2.53 ± 0.03,
